This note sets out measurements from patent US20250388605A1, “HETEROBIFUNCTIONAL COMPOUNDS AND METHODS OF TREATING DISEASE” (Halda Therapeutics OpCo, Inc., priority 2022, published 2025).

What is called Kd is the equilibrium constant for the complex coming apart. The low end stands for tighter binding, the high end for weaker binding. The GI50 is the concentration giving 50% growth inhibition. Read a high GI50 as lower sensitivity of the cells.

Structures are written as SMILES.

In one assay the target is T1, BRD4-BD1 (Homo sapiens, UniProt O60885).
T1 construct: made in house; host or cells: T7 phage grown in an E. coli host derived from the BL21 strain
As to the kind of experiment: Binding affinity to BRD4-BD1 (bromoKdELECT assay). As to conditions: 11-point 3-fold dilution series. How it is done: Compounds were tested using a bromoKdELECT assay. T7 phage strains displaying bromodomains were grown in parallel in 24-well blocks in an E. coli host derived from the BL21 strain. E. coli were grown to log-phase and infected with T7 phage from a frozen stock (multiplicity of infection=0.4) and incubated with shaking at 32° C. until lysis (90-150 minutes). The lysates were centrifuged (5,000×g) and filtered ([…]) to remove cell debris. Streptavidin-coated magnetic beads were treated with biotinylated small molecule or acetylated peptide ligands for 30 minutes at room temperature to generate affinity resins for bromodomain assays. The liganded beads were blocked with excess biotin and washed with blocking buffer (SeaBlock (Pierce), 1% BSA, 0.05% Tween 20, 1 mM DTT) to remove unbound ligand and to reduce nonspecific phage binding. Binding reactions were assembled by combining bromodomains, liganded affinity beads, and test compounds in 1× binding buffer (17% SeaBlock, 0.33×PBS, 0.04% Tween 20, 0.02% BSA, 0.004% Sodium azide, 7.4 mM DTT). Test compounds were prepared as 1000× stocks in 100% DMSO. Kds were determined using an 11-point 3-fold compound dilution series with one DMSO control point. All compounds for Kd measurements are distributed by acoustic transfer (non-contact dispensing) in 100% DMSO. The compounds were then diluted directly into the assays such that the final concentration of DMSO was 0.09%. All reactions performed in polypropylene 384-well plates. Each was a final volume of 0.02 ml. The assay plates were incubated at room temperature with shaking for 1 hour and the affinity beads were washed with wash buffer (1×PBS, 0.05% Tween 20). The beads were then resuspended in elution buffer (1×PBS, 0.05% Tween […] non-biotinylated affinity ligand) and incubated at room temperature with shaking for 30 minutes. The bromodomain concentration in the eluates was measured by qPCR.
`CCS(=O)(=O)c1ccc(Oc2cccc(OCCOC3CCN(c4ccc(C(=O)N[C@H]5C(C)(C)[C@H](Oc6ccc(C#N)c(Cl)c6)C5(C)C)cn4)CC3)c2F)c(-c2cn(C)c(=O)c3[nH]ccc23)c1` [Compound I-185] gave a Kd of 50 to 500 nM. The same measure, in the same setting: the result for `CCS(=O)(=O)Nc1ccc(Oc2cccc(OCCOCCOCCOCCOCCOC3CCN(c4ncc(C(=O)N[C@H]5C(C)(C)[C@H](Oc6ccc(C#N)c(Cl)c6)C5(C)C)cn4)CC3)c2)c(-c2cn(C)c(=O)c3[nH]ccc23)c1` [Compound I-8] reads 50 to 500 nM.

For another assay, the system named is T47D cells. Kind of assay: Cellular Growth Inhibition Assay for T47D Cells (CellTiter-Glo). The class given is cell-based, human. As to conditions: 72 hours. The gist of the method: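 GI50 values derive from four-parameter regression of CellTiter-Glo 2.0 luminescence, using zero luminescence as baseline. Human breast cancer T47D cells (3000/well; DMEM, 10% FBS, 0.2 units/mL insulin) were exposed for 72 h to compound dilutions at 0.5% DMSO, with dosing starting 24 h after seeding.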
On to `CCS(=O)(=O)Nc1ccc(Oc2cccc(OC3CC(C4CCN(c5ncc(C(=O)N[C@H]6C(C)(C)[C@H](Oc7ccc(C#N)c(Cl)c7)C6(C)C)cn5)CC4)C3)c2)c(-c2cn(C)c(=O)c3[nH]ccc23)c1` (some centres unmarked) [Compound I-104], for which the GI50 was < 500 nM.

Regarding `CN(CC1CCN(c2ncc(C(=O)N[C@H]3C(C)(C)[C@H](Oc4ccc(C#N)c(Cl)c4)C3(C)C)cn2)CC1)C1(c2ccc(Oc3ccc(C(C)(C)O)cc3-c3cn(C)c(=O)c4[nH]ccc34)cc2)COC1` [Compound I-255], the GI50 is < 500 nM.

As to `CN(C1CN(c2ccc(Oc3ccc(C(C)(C)O)cc3-c3cn(C)c(=O)c4[nH]ccc34)cc2)C1)C1CN(c2ncc(C(=O)N[C@H]3C(C)(C)[C@H](Oc4ccc(C#N)c(Cl)c4)C3(C)C)cn2)C1` [Compound I-238], the GI50 was < 500 nM.

On to `CCS(=O)(=O)Nc1ccc(Oc2cccc(N3CC(CC4CN(c5ncc(C(=O)N[C@H]6C(C)(C)[C@H](Oc7ccc(C#N)c(Cl)c7)C6(C)C)cn5)C4)C3)c2)c(-c2cn(C)c(=O)c3[nH]ccc23)c1` [Compound I-158], for which the 50% growth inhibitory concentration (GI50) is < 500 nM. On the same count and under the same terms, then `Cn1cc(-c2cc(C(C)(C)O)ccc2Oc2ccc(N3CC4(C3)CN(c3ncc(C(=O)N[C@H]5C(C)(C)[C@H](Oc6ccc(C#N)c(Cl)c6)C5(C)C)cn3)CCO4)cc2)c2cc[nH]c2c1=O` [Compound I-212], with 500 to 1500 nM; and `CCS(=O)(=O)c1ccc(Oc2cccc(OCCN3CCN(c4ncc5c(n4)CN([C@H]4C(C)(C)[C@H](Oc6ccc(C#N)c(Cl)c6)C4(C)C)C5=O)CC3)c2F)c(-c2cn(C)c(=O)c3[nH]ccc23)c1` [Compound I-217], with < 500 nM.

The assay is the same for the next values; noted with them: Homo sapiens, 72 hours.
The compound `Cn1cc(-c2cc(C(C)(C)O)ccc2Oc2ccc(OCC3CCN(c4ncc(C(=O)N[C@H]5C(C)(C)[C@H](Oc6ccc(C#N)c(Cl)c6)C5(C)C)cn4)CC3)cc2)c2cc[nH]c2c1=O` [Compound I-202] returned a GI50 of 500 to 1500 nM. On the same count and under the same terms, then `Cn1cc(-c2cc(N)ccc2Oc2cccc(OCCN3CCN(c4ncc(C(=O)N[C@H]5C(C)(C)[C@H](Oc6ccc(C#N)c(Cl)c6)C5(C)C)cn4)CC3)c2F)c2cc[nH]c2c1=O` [Compound I-100], with 1500 to 3000 nM. As to `CC(C)N(C1CCN(c2ncc(C(=O)N[C@H]3C(C)(C)[C@H](Oc4ccc(C#N)c(Cl)c4)C3(C)C)cn2)CC1)C1CN(c2cccc(Oc3ccc(C(C)(C)O)cc3-c3cn(C)c(=O)c4[nH]ccc34)c2F)C1` [Compound I-221], the GI50 fell in the range of 500 to 1500 nM. Turning to `CCS(=O)(=O)Nc1ccc(Oc2cccc(N3CC4(CN(CC5CCN(c6ncc(C(=O)N[C@H]7C(C)(C)[C@H](Oc8ccc(C#N)c(Cl)c8)C7(C)C)cn6)CC5)C4)C3)c2)c(-c2cn(C)c(=O)c3[nH]ccc23)c1` [Compound I-35, N-((1r, 3r)-3-(3-chloro-4-cyanophenoxy)-2,2,4,4-tetramethylcyclobutyl)-2-(4-((6-(3-(4-(ethylsulfonamido)-2-(6-methyl-7-oxo-6,7-dihydro-1H-pyrrolo[2,3-c]pyridin-4-yl)phenoxy)phenyl)-2,6-diazaspiro[3.3]heptan-2-yl)methyl)piperidin-1-yl)pyrimidine-5-carboxamide], the GI50 is < 500 nM. The same measure, in the same setting: the result for `Cn1cc(-c2cc(N)ccc2Oc2cccc(N3CC(N4CCN(c5ncc(C(=O)N[C@H]6C(C)(C)[C@H](Oc7ccc(C#N)c(Cl)c7)C6(C)C)cn5)CC4)C3)c2F)c2cc[nH]c2c1=O` [Compound I-93] reads 500 to 1500 nM; that for `CCS(=O)(=O)N(C)c1ccc(Oc2cccc(N3CCN(C4CN(c5ncc(C(=O)N[C@H]6C(C)(C)[C@H](Oc7ccc(C#N)c(Cl)c7)C6(C)C)cn5)C4)CC3)c2)c(-c2cn(C)c(=O)c3[nH]ccc23)c1` [Compound I-118], < 500 nM. Same read-out and setting: then `CN(C1CCN(c2ncc(C(=O)N[C@H]3C(C)(C)[C@H](Oc4ccc(C#N)c(Cl)c4)C3(C)C)cn2)CC1)C1CN(c2ccc(Oc3ccc(C(C)(C)O)cc3-c3cn(C)c(=O)c4[nH]ccc34)cc2)C1` [Compound I-208], with < 500 nM; and `Cn1cc(-c2cc(C(C)(C)O)ccc2Oc2ccc(OCCN3CCN(c4ncc(C(=O)N[C@H]5C(C)(C)[C@H](Oc6ccc(C#N)c(Cl)c6)C5(C)C)cn4)CC3)cc2)c2cc[nH]c2c1=O` [Compound I-204], with < 500 nM; and `Cn1cc(-c2cc(C(C)(C)O)ccc2Oc2ccc(CC3CCN(c4ncc(C(=O)N[C@H]5C(C)(C)[C@H](Oc6ccc(C#N)c(Cl)c6)C5(C)C)cn4)CC3)cc2)c2cc[nH]c2c1=O` [Compound I-201], with < 500 nM. For `Cn1cc(-c2cc(C(C)(C)O)ccc2Oc2ccc(N3CC(OC4CCN(c5ncc(C(=O)N[C@H]6C(C)(C)[C@H](Oc7ccc(C#N)c(Cl)c7)C6(C)C)cn5)CC4)C3)cc2)c2cc[nH]c2c1=O` [Compound I-219], the GI50 was < 500 nM. As to `CCS(=O)(=O)Nc1ccc(Oc2cccc(OC3CCC4(CC3)CCN(c3ncc(C(=O)N[C@H]5C(C)(C)[C@H](Oc6ccc(C#N)c(Cl)c6)C5(C)C)cn3)CC4)c2)c(-c2cn(C)c(=O)c3[nH]ccc23)c1` [Compound I-45], the GI50 was < 500 nM. With `Cn1cc(-c2cc(C(C)(C)O)ccc2Oc2ccc(CCCC3CC4(C3)CN(c3ncc(C(=O)N[C@H]5C(C)(C)[C@H](Oc6ccc(C#N)c(Cl)c6)C5(C)C)cn3)C4)cc2)c2cc[nH]c2c1=O` [Compound I-268], the GI50 was < 500 nM. The same measure, in the same setting: the result for `CCS(=O)(=O)c1ccc(Oc2ccc(OCC3CCN(c4ncc5c(n4)CN([C@H]4C(C)(C)[C@H](Cc6ccc(C#N)c(Cl)c6)C4(C)C)C5=O)CC3)cc2)c(-c2cn(C)c(=O)c3[nH]ccc23)c1` [Compound I-220] reads < 500 nM; that for `CCS(=O)(=O)Nc1ccc(Oc2cccc(N3CC(N(C)C4CN(c5ncc(C(=O)N[C@H]6C(C)(C)[C@H](Oc7ccc(C#N)c(Cl)c7)C6(C)C)cn5)C4)C3)c2)c(-c2cn(C)c(=O)c3[nH]ccc23)c1` [Compound I-120], < 500 nM. As for `Cn1cc(-c2cc(C(C)(C)O)ccc2Oc2ccc(N3CC(CC4CN(c5ncc(C(=O)N[C@H]6C(C)(C)[C@H](Oc7ccc(C#N)c(Cl)c7)C6(C)C)cn5)C4)C3)cc2)c2cc[nH]c2c1=O` [Compound I-280], the GI50 is < 500 nM. Same read-out and setting: then `CCS(=O)(=O)Nc1ccc(Oc2cccc(OCCOC3CCN(c4cnc(C(=O)N[C@H]5C(C)(C)[C@H](Oc6ccc(C#N)c(Cl)c6)C5(C)C)cn4)CC3)c2)c(-c2cn(C)c(=O)c3[nH]ccc23)c1` [Compound I-71, N-((1r, 3r)-3-(3-chloro-4-cyanophenoxy)-2,2,4,4-tetramethylcyclobutyl)-5-(4-(2-(3-(4-(ethylsulfonamido)-2-(6-methyl-7-oxo-6,7-dihydro-1H-pyrrolo[2,3-c]pyridin-4-yl)phenoxy)phenoxy)ethoxy)piperidin-1-yl)pyrazine-2-carboxamide], with < 500 nM; and `CCS(=O)(=O)Nc1ccc(Oc2cccc(OCCOC3CCN(c4ccc(C(=O)N[C@H]5C(C)(C)[C@H](Oc6ccc(C#N)c(Cl)c6)C5(C)C)cn4)CC3)c2)c(-c2cn(C)c(=O)c3[nH]ccc23)c1` [Compound I-70, N-((1r, 3r)-3-(3-chloro-4-cyanophenoxy)-2,2,4,4-tetramethylcyclobutyl)-6-(4-(2-(3-(4-(ethylsulfonamido)-2-(6-methyl-7-oxo-6,7-dihydro-1H-pyrrolo[2,3-c]pyridin-4-yl)phenoxy)phenoxy)ethoxy)piperidin-1-yl)nicotinamide], with < 500 nM. As for `Cn1cc(-c2cc(C(C)(C)O)ccc2Oc2cccc(N3CC4(CN(c5ncc(C(=O)N[C@H]6C(C)(C)[C@H](Oc7ccc(C#N)c(Cl)c7)C6(C)C)cn5)CCO4)C3)c2F)c2cc[nH]c2c1=O` [Compound I-216], the GI50 was < 500 nM. On the same count and under the same terms, then `CCS(=O)(=O)Nc1ccc(Oc2cccc(CCN3CC4CN(c5ncc(C(=O)N[C@H]6C(C)(C)[C@H](Oc7ccc(C#N)c(Cl)c7)C6(C)C)cn5)CC4C3)c2)c(-c2cn(C)c(=O)c3[nH]ccc23)c1` (some centres unmarked) [Compound I-119], with < 500 nM.

Regarding `Cn1cc(-c2cc(N)ccc2Oc2cccc(OCCC3CCN(c4ncc(C(=O)N[C@H]5C(C)(C)[C@H](Oc6ccc(C#N)c(Cl)c6)C5(C)C)cn4)CC3)c2)c2cc[nH]c2c1=O` [Compound I-101], the GI50 lay within 500 to 1500 nM. `Cn1cc(-c2cc(C(C)(C)O)ccc2Oc2ccc(N3CC(CC4CCN(c5ncc(C(=O)N[C@H]6C(C)(C)[C@H](Oc7ccc(C#N)c(Cl)c7)C6(C)C)cn5)CC4)C3)cc2)c2cc[nH]c2c1=O` [Compound I-232]: the GI50 is < 500 nM.
